Data as given in patent US5342853A, “Method of using nor-verapamil and nor-gallopamil as anti-arteriosclerotics” (priority 1989, dated 1994).

Legend:
[1] = Antiatherogenic action on rabbits: carotid atheromas induced by electrical stimulation plus cholesterol-rich diet, 28 days; type: in vivo, male rabbits; conditions: rabbit, in vivo; rabbits, oral part of the daily dose (given with s.c. doses); read-out: Highest tolerated daily dose, oral
Description: (§1) Local atheromas are induced by the method of E. Betz and W. Schlote (Basic Res. Cardiol. 1979, 74, 10-20) by electrical stimulation of the carotid artery while, at the same time, feeding a cholesterol-rich diet (2%). At the end of the test period, the atheromas formed under the anode of the stimulating electrodes are removed and their size is determined histologically. Used as a measure of the size of the atheromas is the maximum number of their cell layers determined microscopically from serial sections. The extent of the antiarteriosclerotic action is established by comparison with untreated control animals. Verapamil and gallopamil are used as comparative substances.

[2] = tested on: atheromas (carotid artery); test: as above; type: in vivo, male rabbits; conditions: for Maximum number of cell layers in the atheromas / Maximum number of cell layers in the atheromas, % change: 28 days; for Maximum number of cell layers in the atheromas, % change: vs untreated control; for Action against arteriosclerosis (in words): general statement; for Inhibition of the development of atheromas (in words): compared with verapamil
Description: as §1

[3] = rabbits, highest tolerated daily dose 2 × 0.215 mg/kg s.c. + 4.64 mg/kg oral
[4] = rabbits, daily dose 2 × 1.0 mg/kg s.c. + 21.5 mg/kg oral, verapamil, nor-gallopamil *P < 0.05, nor-verapamil P = 0.682
[5] = rabbits, daily dose 2 × 1.0 mg/kg s.c. + 21.5 mg/kg oral

SMILES	MTD at 672 h [1]	Antiatherogenic effect (in words) ([2]; rabbits, at the highest tolerated daily dose)	Maximum number of cell layers in the atheromas [2, 3]	Maximum number of cell layers in the atheromas, % change [2, 3]	Maximum number of cell layers in the atheromas [2, 4]	Maximum number of cell layers in the atheromas, % change [2, 5]	Action against arteriosclerosis (in words) [2]	Inhibition of the development of atheromas (in words) ([2]; rabbits)
COc1ccc(CCN(C)CCCC(C#N)(c2cc(OC)c(OC)c(OC)c2)C(C)C)cc1OC (centres unmarked) [Gallopamil, 5-[N-(3,4-dimethoxyphenethyl)-N-methylamino]-2-(3,4,5-trimethoxyphenyl]-2-isopropyl-valeronitrile]	4.64 mg/kg	no antiatherogenic effect	15 ± 0.99	+7.1%	–	–	–	–
COc1ccc(CCN(C)CCCC(C#N)(c2ccc(OC)c(OC)c2)C(C)C)cc1OC (centres unmarked) [Verapamil, 5-[N-(3,4-dimethoxyphenethyl)-N-methylamino]-2-(3,4-dimethoxyphenyl)-2-isopropyl-valeronitrile]	–	–	–	–	3.8 ± 0.37	-51%	–	–
COc1ccc(CCNCCCC(C#N)(c2cc(OC)c(OC)c(OC)c2)C(C)C)cc1OC (centres unmarked) [Nor-gallopamil]	–	–	–	–	12 ± 1.3	-44%	very good action against arteriosclerosis	inhibit the development of atheromas to about the same extent as verapamil
COc1ccc(CCNCCCC(C#N)(c2ccc(OC)c(OC)c2)C(C)C)cc1OC (centres unmarked) [Nor-verapamil, 5-[N-(3,4-dimethoxyphenethyl)-amino]-2-(3,4-dimethoxyphenyl)-2-isopropyl-valeronitrile]	–	–	–	–	8.1 ± 1.3	-40%	very good action against arteriosclerosis	inhibit the development of atheromas to about the same extent as verapamil
